Tests used:
Conditions in all cases: incubation time: 72 h
HDQ-P1 [1] = test: normalised response (% of control), CellTox Green; higher = less cell death (100 = DMSO, 0 = benzethonium chloride kill control)
In short: (§1)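 In 384-well plates holding compound at 5 concentrations in 10-fold steps over a 10,000-fold range specific to each compound, breast cancer cell lines were seeded as 20 µl suspension and incubated 72 h. CellTox Green fluorescence was measured at 485/520 nm, after which CellTiter-Glo luminescence was measured following 10 min at room temperature. Plate signals were normalised to 0.1 % DMSO (100) and a positive kill control (0), and each value is the normalised signal at a single concentration.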

HCC1599 [2] = test: as above
In short: as §1

Hs578T [3] = test: as above
In short: as §1

MCF-10A [4] = test: as above
In short: as §1

BT-474 [5] = test: as above
In short: as §1

MDA-MB-436 [6] = test: as above
In short: as §1

CAL-51 [7] = test: as above
In short: as §1

MDA-MB-453 [8] = test: as above
In short: as §1

MDA-MB-231 [9] = test: as above
In short: as §1

HCC1937 [10] = test: as above
In short: as §1

MDA-MB-468 [11] = test: as above
In short: as §1

DU-4475 [12] = test: as above
In short: as §1

BT-549 [13] = test: as above
In short: as §1

HCC1143 [14] = test: as above
In short: as §1

CAL-85-1 [15] = test: as above
In short: as §1

CAL-120 [16] = test: as above
In short: as §1

CAL-148 [17] = test: as above
In short: as §1

MFM-223 [18] = test: as above
In short: as §1

HDQ-P1 [19] = test: normalised response (% of control), CellTiter-Glo; higher = more viable cells (100 = DMSO, 0 = benzethonium chloride kill control)
In short: as §1

HCC1599 [20] = test: as above
In short: as §1

Hs578T [21] = test: as above
In short: as §1

MCF-10A [22] = test: as above
In short: as §1

BT-474 [23] = test: as above
In short: as §1

MDA-MB-436 [24] = test: as above
In short: as §1

CAL-51 [25] = test: as above
In short: as §1

SK-BR-3 = test: as above
In short: as §1

MDA-MB-453 [26] = test: as above
In short: as §1

MDA-MB-231 [27] = test: as above
In short: as §1

HCC1937 [28] = test: as above
In short: as §1

MDA-MB-468 [29] = test: as above
In short: as §1

DU-4475 [30] = test: as above
In short: as §1

BT-549 [31] = test: as above
In short: as §1

HCC1143 [32] = test: as above
In short: as §1

CAL-85-1 [33] = test: as above
In short: as §1

CAL-120 [34] = test: as above
In short: as §1

CAL-148 [35] = test: as above
In short: as §1

MFM-223 [36] = test: as above
In short: as §1

Structure (SMILES) | normalised response (HDQ-P1 [1]) | normalised response (HCC1599 [2]) | normalised response (Hs578T [3]) | normalised response (MCF-10A [4]) | normalised response (BT-474 [5]) | normalised response (MDA-MB-436 [6]) | normalised response (CAL-51 [7]) | normalised response (MDA-MB-453 [8]) | normalised response (MDA-MB-231 [9]) | normalised response (HCC1937 [10]) | normalised response (MDA-MB-468 [11]) | normalised response (DU-4475 [12]) | normalised response (BT-549 [13]) | normalised response (HCC1143 [14]) | normalised response (CAL-85-1 [15]) | normalised response (CAL-120 [16]) | normalised response (CAL-148 [17]) | normalised response (MFM-223 [18]) | normalised response (HDQ-P1 [19]) | normalised response (HCC1599 [20]) | normalised response (Hs578T [21]) | normalised response (MCF-10A [22]) | normalised response (BT-474 [23]) | normalised response (MDA-MB-436 [24]) | normalised response (CAL-51 [25]) | normalised response (SK-BR-3) | normalised response (MDA-MB-453 [26]) | normalised response (MDA-MB-231 [27]) | normalised response (HCC1937 [28]) | normalised response (MDA-MB-468 [29]) | normalised response (DU-4475 [30]) | normalised response (BT-549 [31]) | normalised response (HCC1143 [32]) | normalised response (CAL-85-1 [33]) | normalised response (CAL-120 [34]) | normalised response (CAL-148 [35]) | normalised response (MFM-223 [36])
N#Cc1ccc(C(c2ccc(C#N)cc2)n2cncn2)cc1 [Letrozole] (10000 nM) | 107% | 101% | 66.7% | 103% | 102% | 93.9% | 116% | 98.1% | 105% | 94.5% | 70.7% | 101% | 102% | 127% | 94.2% | 101% | 97.9% | 100% | 103% | 85.2% | 97.7% | 106% | 91.7% | 102% | 128% | 101% | 96.8% | 91.5% | 100% | 97% | 98.8% | 96.3% | 97.7% | 97.8% | 98.8% | 101% | 99.8%
C[C@H]1C[C@@H]2[C@H]([C@@H](O)C[C@@]3(C)[C@H]2CC[C@]3(O)C(=O)CO)[C@@]2(C)C=CC(=O)C=C12 [Methylprednisolone] (10000 nM) | 111% | 86.3% | 126% | 99.1% | 99.9% | 91.9% | 119% | 101% | 154% | 94.8% | 151% | 103% | 111% | 121% | 73.1% | 102% | 93.7% | 93.2% | 89.9% | 103% | 108% | 101% | 151% | 102% | 130% | 94.5% | 96.7% | 146% | 97.5% | 106% | 104% | 98.4% | 104% | 112% | 77.7% | 112% | 99.6%
C=CCc1cccc(/C=N/NC(=O)CN2CCN(Cc3ccccc3)CC2)c1O [PAC-1] (10000 nM) | 113% | 91% | 116% | 99.2% | 74.2% | 103% | 68.6% | 93.7% | 86.4% | 96% | 65.4% | 86.9% | 2.94% | 101% | 63.3% | 70.5% | 61.4% | 103% | 61.4% | 33.4% | 73.5% | 77.7% | 38.9% | 17.8% | 5.5% | 14.9% | 26.4% | 45% | 27.7% | 11.6% | 9.69% | 34% | 41.4% | 21% | 34.8% | 26.6% | 43.4%
CC[C@H](C)C(=O)O[C@H]1C[C@H](O)C=C2C=C[C@H](C)[C@H](CC[C@@H](O)C[C@@H](O)CC(=O)O)[C@H]21 [Pravastatin] (10000 nM) | 97.2% | 89.1% | 115% | 26.1% | 99.4% | -63.1% | 16.5% | 94.4% | 54.3% | 96.1% | 21.1% | 93.2% | 90.3% | 101% | 106% | 101% | 91.6% | 63.1% | 65.7% | 29.5% | 70.3% | 67.1% | 50.8% | 21.6% | 36% | 21.6% | 55.3% | 61% | 37% | 34.5% | 41.6% | 56.4% | 42.3% | 44.8% | 58% | 39.7% | 49.5%
Cc1cnc(NC(=O)Nc2cc(Br)c(C)cc2OC[C@@H]2CNCCO2)cn1 [Rabusertib] (1000 nM) | 110% | 95.7% | 103% | 109% | 103% | 104% | 111% | 104% | 100% | 114% | 137% | 102% | 109% | 129% | 59.3% | 106% | 58.9% | 82.7% | 100% | 29.4% | 71.3% | 112% | 100% | 116% | 110% | 48.6% | 77.2% | 92.1% | 80.9% | 102% | 106% | 91.5% | 99.5% | 87.8% | 102% | 112% | 98.2%
COc1cc([C@@H]2c3cc4c(cc3[C@@H](O[C@@H]3O[C@@H]5CO[C@@H](c6cccs6)O[C@H]5[C@H](O)[C@H]3O)[C@H]3COC(=O)[C@H]23)OCO4)cc(OC)c1O [Teniposide] (10000 nM) | -41.5% | 67% | 45.6% | 59.6% | 59.4% | 80.5% | 13.6% | 105% | -78.1% | 51% | 29.8% | 61.9% | 59% | 74.5% | -1.62% | 22.2% | 38.7% | 48.8% | 34.3% | 5.92% | 6.65% | 51.8% | 9.52% | 17.1% | 14% | 6.25% | 64% | 15.6% | 22.8% | 7.53% | 4.51% | 5.21% | 10.8% | 8.03% | 23.6% | 4.81% | 12.9%
COc1cc2nccc(Oc3ccc(NC(=O)Nc4cc(C)on4)c(Cl)c3)c2cc1OC [Tivozanib] (10000 nM) | 93.9% | 102% | 21.6% | 91.7% | 85.2% | 104% | 25% | 104% | 77.7% | 111% | 134% | 98% | 126% | 110% | 100% | 89.6% | 78.1% | 93.8% | 62.2% | 77.2% | 63.8% | 42.7% | 50.3% | 79.6% | 70.7% | 70.8% | 64.3% | 46% | 61.6% | 52.2% | 91.9% | 64.2% | 86.2% | 76.6% | 50.6% | 77.6% | 34.3%
CC(=O)Nc1cccc(-n2c(=O)n(C3CC3)c(=O)c3c(Nc4ccc(I)cc4F)n(C)c(=O)c(C)c32)c1 [Trametinib] (250 nM) | 82.9% | 110% | 118% | 60.7% | 101% | 113% | 86.8% | 105% | 63.1% | 110% | 96% | 73.2% | 119% | 120% | 31.4% | 77.3% | 86% | 101% | 57.4% | 88.3% | 64.6% | 32.3% | 60.1% | 79.2% | 69% | 96.1% | 98% | 61.9% | 66.5% | 82.5% | 0.48% | 89% | 81.2% | 46.2% | 62.2% | 84.3% | 60.2%
